tested on: microfilariae of Dirofilaria immitis; experiment: Dirofilaria immitis, Microfilaria (DiMF) In vitro Assay; format: cell-based; conditions: 72 h, read-out: DiMF Minimum Effective Dose (MED), approximately 72 hours incubation, microfilariae assessed for survival or paralysis

Row | SMILES | minimal effective concentration [µM]
1 | CC(C)C[C@H]1C(=O)O[C@H](Cc2ccc(Cn3cc(S(=O)(=O)N4CCOCC4)cn3)cc2)C(=O)N(C)[C@@H](CC(C)C)C(=O)O[C@H](C)C(=O)N(C)[C@@H](CC(C)C)C(=O)O[C@H](Cc2ccccc2)C(=O)N(C)[C@@H](CC(C)C)C(=O)O[C@H](C)C(=O)N1C [Example 2-23, (3S,6R,9S,12R,15S,18R,21S,24R)-6-benzyl-3,9,15,21-tetraisobutyl-4,10,12,16,22,24-hexamethyl-18-(4-((4-(morpholinosulfonyl)-1H-pyrazol-1-yl)methyl)benzyl)-1,7,13,19-tetraoxa-4,10,16,22-tetraazacyclotetracosan-2,5,8,11,14,17,20,23-octaone] | 0.01 to 0.1
2 | CC(C)C[C@H]1C(=O)O[C@H](Cc2ccc(Cn3cc(S(=O)(=O)N4CCCC4)cn3)cc2)C(=O)N(C)[C@@H](CC(C)C)C(=O)O[C@H](C)C(=O)N(C)[C@@H](CC(C)C)C(=O)O[C@H](Cc2ccccc2)C(=O)N(C)[C@@H](CC(C)C)C(=O)O[C@H](C)C(=O)N1C [Example 2-24, (3S,6R,9S,12R,15S,18R,21S,24R)-6-benzyl-3,9,15,21-tetraisobutyl-4,10,12,16,22,24-hexamethyl-18-(4-((4-(pyrrolidin-1-ylsulfonyl)-1H-pyrazol-1-yl)methyl)benzyl)-1,7,13,19-tetraoxa-4,10,16,22-tetraazacyclotetracosan-2,5,8,11,14,17,20,23-octaone] | 0.01 to 0.1
3 | CCCc1cnn(Cc2ccc(C[C@H]3OC(=O)[C@H](CC(C)C)N(C)C(=O)[C@@H](C)OC(=O)[C@H](CC(C)C)N(C)C(=O)[C@@H](Cc4ccccc4)OC(=O)[C@H](CC(C)C)N(C)C(=O)[C@@H](C)OC(=O)[C@H](CC(C)C)N(C)C3=O)cc2)c1 [Example 2-26, (3S,6R,9S,12R,15S,18R,21S,24R)-6-benzyl-3,9,15,21-tetraisobutyl-4,10,12,16,22,24-hexamethyl-18-(4-((4-propyl-1H-pyrazol-1-yl)methyl)benzyl)-1,7,13,19-tetraoxa-4,10,16,22-tetraazacyclotetracosan-2,5,8,11,14,17,20,23-octaone] | 0.01 to 0.1
4 | CC(C)C[C@H]1C(=O)O[C@H](Cc2ccc(Cn3cc(S(=O)(=O)N4CCC4)cn3)cc2)C(=O)N(C)[C@@H](CC(C)C)C(=O)O[C@H](C)C(=O)N(C)[C@@H](CC(C)C)C(=O)O[C@H](Cc2ccccc2)C(=O)N(C)[C@@H](CC(C)C)C(=O)O[C@H](C)C(=O)N1C [Example 2-27, (3S,6R,9S,12R,15S,18R,21S,24R)-6-(4-((4-(azetidin-1-ylsulfonyl)-1H-pyrazol-1-yl)methyl)benzyl)-18-benzyl-3,9,15,21-tetraisobutyl-4,10,12,16,22,24-hexamethyl-1,7,13,19-tetraoxa-4,10,16,22-tetraazacyclotetracosan-2,5,8,11,14,17,20,23-octaone] | 0.01 to 0.1
5 | CC(C)C[C@H]1C(=O)O[C@H](Cc2ccc(Cn3cc([N+](=O)[O-])cn3)cc2)C(=O)N(C)[C@@H](CC(C)C)C(=O)O[C@H](C)C(=O)N(C)[C@@H](CC(C)C)C(=O)O[C@H](Cc2ccccc2)C(=O)N(C)[C@@H](CC(C)C)C(=O)O[C@H](C)C(=O)N1C [Example 2-29, (3S,6R,9S,12R,15S,18R,21S,24R)-6-benzyl-3,9,15,21-tetraisobutyl-4,10,12,16,22,24-hexamethyl-18-(4-((4-nitro-1H-pyrazol-1-yl)methyl)benzyl)-1,7,13,19-tetraoxa-4,10,16,22-tetraazacyclotetracosan-2,5,8,11,14,17,20,23-octaone] | 0.001 to 0.01
6 | CC(=O)Nc1cnn(Cc2ccc(C[C@H]3OC(=O)[C@H](CC(C)C)N(C)C(=O)[C@@H](C)OC(=O)[C@H](CC(C)C)N(C)C(=O)[C@@H](Cc4ccccc4)OC(=O)[C@H](CC(C)C)N(C)C(=O)[C@@H](C)OC(=O)[C@H](CC(C)C)N(C)C3=O)cc2)c1 [Example 2-31, N-(1-(4-(((2R,5S,8R,11S,14R,17S,20R,23S)-14-benzyl-5,11,17,23-tetraisobutyl-4,8,10,16,20,22-hexamethyl-3,6,9,12,15,18,21,24-octaoxo-1,7,13,19-tetraoxa-4,10,16,22-tetraazacyclotetracosan-2-yl)methyl)benzyl)-1H-pyrazol-4-yl)acetamide] | 0.01 to 0.1
7 | CC(C)C[C@H]1C(=O)O[C@H](Cc2ccc(Cn3nc(C4CC4)cc3C3CC3)cc2)C(=O)N(C)[C@@H](CC(C)C)C(=O)O[C@H](C)C(=O)N(C)[C@@H](CC(C)C)C(=O)O[C@H](Cc2ccccc2)C(=O)N(C)[C@@H](CC(C)C)C(=O)O[C@H](C)C(=O)N1C [Example 2-32, (3S,6R,9S,12R,15S,18R,21S,24R)-6-benzyl-18-(4-((3,5-dicyclopropyl-1H-pyrazol-1-yl)methyl)benzyl)-3,9,15,21-tetraisobutyl-4,10,12,16,22,24-hexamethyl-1,7,13,19-tetraoxa-4,10,16,22-tetraazacyclotetracosan-2,5,8,11,14,17,20,23-octaone] | 0.01 to 0.1
8 | CC(C)C[C@H]1C(=O)O[C@H](Cc2ccc(Cn3cc(CCO)cn3)cc2)C(=O)N(C)[C@@H](CC(C)C)C(=O)O[C@H](C)C(=O)N(C)[C@@H](CC(C)C)C(=O)O[C@H](Cc2ccccc2)C(=O)N(C)[C@@H](CC(C)C)C(=O)O[C@H](C)C(=O)N1C [Example 2-35, (3S,6R,9S,12R,15S,18R,21S,24R)-6-benzyl-18-(4-((4-(2-hydroxyethyl)-1H-pyrazol-1-yl)methyl)benzyl)-3,9,15,21-tetraisobutyl-4,10,12,16,22,24-hexamethyl-1,7,13,19-tetraoxa-4,10,16,22-tetraazacyclotetracosan-2,5,8,11,14,17,20,23-octaone] | 0.01 to 0.1
9 | CC(C)C[C@H]1C(=O)O[C@H](Cc2ccc(Cn3cc(NS(C)(=O)=O)cn3)cc2)C(=O)N(C)[C@@H](CC(C)C)C(=O)O[C@H](C)C(=O)N(C)[C@@H](CC(C)C)C(=O)O[C@H](Cc2ccccc2)C(=O)N(C)[C@@H](CC(C)C)C(=O)O[C@H](C)C(=O)N1C [Example 2-36, N-(1-(4-(((2R,5S,8R,11S,14R,17S,20R,23S)-14-benzyl-5,11,17,23-tetraisobutyl-4,8,10,16,20,22-hexamethyl-3,6,9,12,15,18,21,24-octaoxo-1,7,13,19-tetraoxa-4,10,16,22-tetraazacyclotetracosan-2-yl)methyl)benzyl)-1H-pyrazol-4-yl)methanesulfonamide] | 0.01 to 0.1
10 | CC(C)C[C@H]1C(=O)O[C@H](Cc2ccc(Cn3cc(C4CCCC4)cn3)cc2)C(=O)N(C)[C@@H](CC(C)C)C(=O)O[C@H](C)C(=O)N(C)[C@@H](CC(C)C)C(=O)O[C@H](Cc2ccccc2)C(=O)N(C)[C@@H](CC(C)C)C(=O)O[C@H](C)C(=O)N1C [Example 2-38, (3S,6R,9S,12R,15S,18R,21S,24R)-6-benzyl-18-(4-((4-cyclopentyl-1H-pyrazol-1-yl)methyl)benzyl)-3,9,15,21-tetraisobutyl-4,10,12,16,22,24-hexamethyl-1,7,13,19-tetraoxa-4,10,16,22-tetraazacyclotetracosan-2,5,8,11,14,17,20,23-octaone] | 0.01 to 0.1
11 | CCOc1cnn(Cc2ccc(C[C@H]3OC(=O)[C@H](CC(C)C)N(C)C(=O)[C@@H](C)OC(=O)[C@H](CC(C)C)N(C)C(=O)[C@@H](Cc4ccc(CO)cc4)OC(=O)[C@H](CC(C)C)N(C)C(=O)[C@@H](C)OC(=O)[C@H](CC(C)C)N(C)C3=O)cc2)c1 [Example 2-39, (3S,6R,9S,12R,15S,18R,21S,24R)-6-(4-((4-ethoxy-1H-pyrazol-1-yl)methyl)benzyl)-18-(4-(hydroxymethyl)benzyl)-3,9,15,21-tetraisobutyl-4,10,12,16,22,24-hexamethyl-1,7,13,19-tetraoxa-4,10,16,22-tetraazacyclotetracosan-2,5,8,11,14,17,20,23-octaone] | 0.001 to 0.01
12 | Cc1nn(Cc2ccc(C[C@H]3OC(=O)[C@H](CC(C)C)N(C)C(=O)[C@@H](C)OC(=O)[C@H](CC(C)C)N(C)C(=O)[C@@H](Cc4ccccc4)OC(=O)[C@H](CC(C)C)N(C)C(=O)[C@@H](C)OC(=O)[C@H](CC(C)C)N(C)C3=O)cc2)c(C)c1S(=O)(=O)N1CCCC1 [Example 2-40, (3S,6R,9S,12R,15S,18R,21S,24R)-6-benzyl-18-(4-((3,5-dimethyl-4-(pyrrolidin-1-ylsulfonyl)-1H-pyrazol-1-yl)methyl)benzyl)-3,9,15,21-tetraisobutyl-4,10,12,16,22,24-hexamethyl-1,7,13,19-tetraoxa-4,10,16,22-tetraazacyclotetracosan-2,5,8,11,14,17,20,23-octaone] | 0.01 to 0.1
13 | CC(C)C[C@H]1C(=O)O[C@H](Cc2ccc(Cn3nc(CO)cc3CO)cc2)C(=O)N(C)[C@@H](CC(C)C)C(=O)O[C@H](C)C(=O)N(C)[C@@H](CC(C)C)C(=O)O[C@H](Cc2ccccc2)C(=O)N(C)[C@@H](CC(C)C)C(=O)O[C@H](C)C(=O)N1C [Example 2-42, (3S,6R,9S,12R,15S,18R,21S,24R)-6-benzyl-18-(4-((3,5-bis(hydroxymethyl)-1H-pyrazol-1-yl)methyl)benzyl)-3,9,15,21-tetraisobutyl-4,10,12,16,22,24-hexamethyl-1,7,13,19-tetraoxa-4,10,16,22-tetraazacyclotetracosan-2,5,8,11,14,17,20,23-octaone] | 0.01 to 0.1
14 | CC(=O)Nc1c(C)nn(Cc2ccc(C[C@H]3OC(=O)[C@H](CC(C)C)N(C)C(=O)[C@@H](C)OC(=O)[C@H](CC(C)C)N(C)C(=O)[C@@H](Cc4ccccc4)OC(=O)[C@H](CC(C)C)N(C)C(=O)[C@@H](C)OC(=O)[C@H](CC(C)C)N(C)C3=O)cc2)c1C [Example 2-43, N-(1-(4-(((2R,5S,8R,11S,14R,17S,20R,23S)-14-benzyl-5,11,17,23-tetraisobutyl-4,8,10,16,20,22-hexamethyl-3,6,9,12,15,18,21,24-octaoxo-1,7,13,19-tetraoxa-4,10,16,22-tetraazacyclotetracosan-2-yl)methyl)benzyl)-3,5-dimethyl-1H-pyrazol-4-yl)acetamide] | 0.01 to 0.1
